Values of other authors, collected in patent publication US20180338996A1, “COMBINATION THERAPY FOR TRAUMATIC BRAIN INJURY” (UNIVERSITY OF SOUTH FLORIDA, priority 2017, published 2018).

Row | Structure (SMILES) | adverse effects in clinical use
1 | CN(CCOc1ccc(CC2SC(=O)NC2=O)cc1)c1ccccn1 (centres unmarked) [rosiglitazone] | weight gain, fluid retention, congestive heart failure, and bone fractures
2 | CCc1ccc(CCOc2ccc(CC3SC(=O)NC3=O)cc2)nc1 (centres unmarked) [PG, pioglitazone] | weight gain, fluid retention, congestive heart failure, and bone fractures
